Results reported in ChEMBL document CHEMBL3259563, “The discovery of potent and selective non-steroidal glucocorticoid receptor modulators, suitable for inhalation” (Bioorg Med Chem Lett, 2014).
Each block holds one molecule with its values, some of them ahead of it.

Columns and labels:
Hepatocyte [1] = assay: Intrinsic clearance in rat hepatocytes; assay type: ADME, cell-based
[2] = Thermodynamic solubility of the amorphous compound in 0.1 M phosphate buffer at pH 7.4 at 25 degC after 24 hrs; assay type: physicochemical; details: read-out: Therm_solubility
Cytochrome P450 2C9 = Cytochrome P450 2C9 (Homo sapiens, UniProt P11712); assay: Inhibition of CYP2C9 (unknown origin); assay type: ADME
[3] = Lipophilicity, log D of the compound at pH 7.4; assay type: physicochemical; details: buffer
Cytochrome P450 2D6 = Cytochrome P450 2D6 (Homo sapiens, UniProt P10635); assay: Inhibition of CYP2D6 (unknown origin); assay type: ADME
Mus musculus [4] = assay: Antiinflammatory activity in mouse acute cigarette smoke model assessed as inhibition of neutrophil influx to broncho-alveolar lavage fluid at 100 ug/kg, administered intratracheally 30 mins prior to first cigarette smoke challenge every day for 4 days measured after 24 hrs post last cigarette smoke challenge relative to control; details: inhaled or nasal
[5] = Thermodynamic solubility of the crystalline compound in 0.1 M phosphate buffer at pH 7.4 at 25 degC after 24 hrs; assay type: physicochemical; details: read-out: Therm_solubility
Mus musculus [6] = assay: Antiinflammatory activity in mouse acute cigarette smoke model assessed as inhibition of neutrophil influx to broncho-alveolar lavage fluid at 30 ug/kg, administered intratracheally 30 mins prior to first cigarette smoke challenge every day for 4 days measured after 24 hrs post last cigarette smoke challenge relative to control; details: inhaled or nasal
Androgen receptor = molecular target: T1, Androgen receptor (Homo sapiens, UniProt P10275); assay: Binding affinity to androgen receptor (unknown origin)
T1 sequence (P10275 whole entry): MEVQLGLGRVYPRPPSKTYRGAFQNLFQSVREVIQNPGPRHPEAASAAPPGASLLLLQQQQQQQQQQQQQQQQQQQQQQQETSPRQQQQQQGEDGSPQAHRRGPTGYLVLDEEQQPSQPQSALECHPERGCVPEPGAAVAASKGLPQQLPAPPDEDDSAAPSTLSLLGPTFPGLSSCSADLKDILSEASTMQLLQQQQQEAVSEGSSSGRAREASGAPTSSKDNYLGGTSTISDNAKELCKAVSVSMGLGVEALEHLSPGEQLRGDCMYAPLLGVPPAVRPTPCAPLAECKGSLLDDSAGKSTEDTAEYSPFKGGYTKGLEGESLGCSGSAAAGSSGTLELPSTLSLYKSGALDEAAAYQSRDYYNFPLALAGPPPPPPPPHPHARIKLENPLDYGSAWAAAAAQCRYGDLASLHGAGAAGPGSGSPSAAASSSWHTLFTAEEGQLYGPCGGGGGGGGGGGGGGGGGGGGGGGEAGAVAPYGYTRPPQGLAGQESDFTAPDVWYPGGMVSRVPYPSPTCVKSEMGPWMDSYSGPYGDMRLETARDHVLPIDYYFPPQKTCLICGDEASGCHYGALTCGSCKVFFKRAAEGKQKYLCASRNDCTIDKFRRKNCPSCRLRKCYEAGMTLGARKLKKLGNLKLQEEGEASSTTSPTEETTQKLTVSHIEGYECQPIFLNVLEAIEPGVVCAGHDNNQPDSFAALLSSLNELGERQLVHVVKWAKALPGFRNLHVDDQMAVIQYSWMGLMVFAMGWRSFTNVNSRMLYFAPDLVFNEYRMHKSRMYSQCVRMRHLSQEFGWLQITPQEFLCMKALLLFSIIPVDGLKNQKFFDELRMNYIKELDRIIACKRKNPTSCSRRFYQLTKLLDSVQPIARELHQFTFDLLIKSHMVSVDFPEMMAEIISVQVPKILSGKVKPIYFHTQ

Plasma = assay: Fraction unbound in human plasma; assay type: ADME, cell-free
Mus musculus [7] = assay: Antiinflammatory activity in mouse acute cigarette smoke model assessed as inhibition of neutrophil influx to broncho-alveolar lavage fluid at 10 ug/kg, administered intratracheally 30 mins prior to first cigarette smoke challenge every day for 4 days measured after 24 hrs post last cigarette smoke challenge relative to control; details: inhaled or nasal
Cytochrome P450 1A2 = molecular target: T2, Cytochrome P450 1A2 (Homo sapiens, UniProt P05177); assay: Inhibition of CYP1A2 (unknown origin); assay type: ADME
T2 sequence (P05177 whole entry): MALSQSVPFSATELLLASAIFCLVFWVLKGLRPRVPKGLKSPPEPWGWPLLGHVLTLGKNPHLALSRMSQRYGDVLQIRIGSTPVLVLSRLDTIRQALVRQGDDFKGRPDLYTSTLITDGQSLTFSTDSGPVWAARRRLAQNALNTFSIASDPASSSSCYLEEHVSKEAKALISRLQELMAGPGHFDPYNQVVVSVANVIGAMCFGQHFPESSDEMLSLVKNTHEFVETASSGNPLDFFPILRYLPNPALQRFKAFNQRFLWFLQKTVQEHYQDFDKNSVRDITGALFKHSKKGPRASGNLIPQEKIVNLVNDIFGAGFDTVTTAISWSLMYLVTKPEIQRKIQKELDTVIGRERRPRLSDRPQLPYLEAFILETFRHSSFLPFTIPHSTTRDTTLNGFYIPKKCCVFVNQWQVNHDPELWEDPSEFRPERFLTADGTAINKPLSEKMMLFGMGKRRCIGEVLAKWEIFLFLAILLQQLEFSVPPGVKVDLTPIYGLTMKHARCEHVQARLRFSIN

Cytochrome P450 3A4 = Cytochrome P450 3A4 (Homo sapiens, UniProt P08684); assay: Inhibition of CYP3A4 (unknown origin); assay type: ADME
Rattus norvegicus [8] = assay: Antiinflammatory activity in rat assessed as inhibition of LPS-induced leukocyte influx to broncho-alveolar lavage fluid at 30 ug/kg, administered intratracheally 2 hrs prior to LPS challenge measured after 4 hrs relative to control; assay type: functional; details: inhaled or nasal
Rattus norvegicus [9] = assay: Antiinflammatory activity in rat assessed as inhibition of LPS-induced lung edema at 30 ug/kg, administered intratracheally 2 hrs prior to LPS challenge measured after 4 hrs relative to control; assay type: functional; details: inhaled or nasal
Glucocorticoid receptor = molecular target: T3, Glucocorticoid receptor (Rattus norvegicus, UniProt P06536); assay: Agonist activity at glucocorticoid receptor in rat PBMC assessed as inhibition of LPS-stimulated TNF-alpha release
T3 sequence (P06536 whole entry): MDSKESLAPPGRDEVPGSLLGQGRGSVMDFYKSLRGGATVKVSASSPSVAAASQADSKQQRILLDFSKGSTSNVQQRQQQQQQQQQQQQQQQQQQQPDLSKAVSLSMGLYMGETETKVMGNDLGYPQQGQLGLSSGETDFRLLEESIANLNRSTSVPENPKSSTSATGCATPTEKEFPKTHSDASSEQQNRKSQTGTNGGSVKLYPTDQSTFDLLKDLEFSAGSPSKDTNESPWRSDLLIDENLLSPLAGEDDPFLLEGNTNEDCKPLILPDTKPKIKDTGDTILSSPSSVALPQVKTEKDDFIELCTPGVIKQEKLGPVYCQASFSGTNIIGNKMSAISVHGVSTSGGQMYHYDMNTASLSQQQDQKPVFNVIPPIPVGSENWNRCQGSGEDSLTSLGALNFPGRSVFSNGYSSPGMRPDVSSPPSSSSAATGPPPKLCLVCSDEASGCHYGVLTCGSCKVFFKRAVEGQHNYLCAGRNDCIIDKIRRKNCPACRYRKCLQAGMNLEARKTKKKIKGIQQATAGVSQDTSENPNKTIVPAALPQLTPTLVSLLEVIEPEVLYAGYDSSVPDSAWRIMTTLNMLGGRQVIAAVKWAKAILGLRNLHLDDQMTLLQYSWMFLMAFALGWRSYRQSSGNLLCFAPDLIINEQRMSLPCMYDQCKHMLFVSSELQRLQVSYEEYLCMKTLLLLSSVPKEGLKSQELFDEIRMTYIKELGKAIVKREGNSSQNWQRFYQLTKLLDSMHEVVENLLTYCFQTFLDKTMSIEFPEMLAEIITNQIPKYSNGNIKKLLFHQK

Hepatocyte [10] = assay: Intrinsic clearance in human hepatocytes; assay type: ADME, cell-based
Rattus norvegicus [11] = assay: Antiinflammatory activity in rat assessed as inhibition of LPS-induced lung edema at 100 ug/kg, administered intratracheally 2 hrs prior to LPS challenge measured after 4 hrs relative to control; assay type: functional; details: inhaled or nasal
Rattus norvegicus [12] = assay: Antiinflammatory activity in rat assessed as inhibition of LPS-induced leukocyte influx to broncho-alveolar lavage fluid at 100 ug/kg, administered intratracheally 2 hrs prior to LPS challenge measured after 4 hrs relative to control; assay type: functional; details: inhaled or nasal
Lung = assay: Drug uptake in intratracheally dosed rat lung after 24 hrs; assay type: ADME, organism-based; details: in vivo, inhaled_or_intranasal
Rattus norvegicus [13] = assay: Antiinflammatory activity in rat assessed as inhibition of LPS-induced leukocyte influx to broncho-alveolar lavage fluid at 10 ug/kg, administered intratracheally 2 hrs prior to LPS challenge measured after 4 hrs relative to control; assay type: functional; details: inhaled or nasal
Cytochrome P450 2C19 = Cytochrome P450 2C19 (Homo sapiens, UniProt P33261); assay: Inhibition of CYP2C19 (unknown origin); assay type: ADME
Rattus norvegicus [14] = assay: Antiinflammatory activity in rat assessed as inhibition of LPS-induced lung edema at 10 ug/kg, administered intratracheally 2 hrs prior to LPS challenge measured after 4 hrs relative to control; assay type: functional; details: inhaled or nasal
hERG (KCNH2) = hERG (KCNH2) (Homo sapiens, UniProt Q12809); assay: Inhibition of human ERG channel at 50 uM
Mus musculus [15] = assay: Antiinflammatory activity in mouse acute cigarette smoke model assessed as inhibition of neutrophil influx to broncho-alveolar lavage fluid at 300 ug/kg, administered intratracheally 30 mins prior to first cigarette smoke challenge every day for 4 days measured after 24 hrs post last cigarette smoke challenge relative to control; details: inhaled or nasal

Sequence of hERG (KCNH2) (Q12809 whole entry): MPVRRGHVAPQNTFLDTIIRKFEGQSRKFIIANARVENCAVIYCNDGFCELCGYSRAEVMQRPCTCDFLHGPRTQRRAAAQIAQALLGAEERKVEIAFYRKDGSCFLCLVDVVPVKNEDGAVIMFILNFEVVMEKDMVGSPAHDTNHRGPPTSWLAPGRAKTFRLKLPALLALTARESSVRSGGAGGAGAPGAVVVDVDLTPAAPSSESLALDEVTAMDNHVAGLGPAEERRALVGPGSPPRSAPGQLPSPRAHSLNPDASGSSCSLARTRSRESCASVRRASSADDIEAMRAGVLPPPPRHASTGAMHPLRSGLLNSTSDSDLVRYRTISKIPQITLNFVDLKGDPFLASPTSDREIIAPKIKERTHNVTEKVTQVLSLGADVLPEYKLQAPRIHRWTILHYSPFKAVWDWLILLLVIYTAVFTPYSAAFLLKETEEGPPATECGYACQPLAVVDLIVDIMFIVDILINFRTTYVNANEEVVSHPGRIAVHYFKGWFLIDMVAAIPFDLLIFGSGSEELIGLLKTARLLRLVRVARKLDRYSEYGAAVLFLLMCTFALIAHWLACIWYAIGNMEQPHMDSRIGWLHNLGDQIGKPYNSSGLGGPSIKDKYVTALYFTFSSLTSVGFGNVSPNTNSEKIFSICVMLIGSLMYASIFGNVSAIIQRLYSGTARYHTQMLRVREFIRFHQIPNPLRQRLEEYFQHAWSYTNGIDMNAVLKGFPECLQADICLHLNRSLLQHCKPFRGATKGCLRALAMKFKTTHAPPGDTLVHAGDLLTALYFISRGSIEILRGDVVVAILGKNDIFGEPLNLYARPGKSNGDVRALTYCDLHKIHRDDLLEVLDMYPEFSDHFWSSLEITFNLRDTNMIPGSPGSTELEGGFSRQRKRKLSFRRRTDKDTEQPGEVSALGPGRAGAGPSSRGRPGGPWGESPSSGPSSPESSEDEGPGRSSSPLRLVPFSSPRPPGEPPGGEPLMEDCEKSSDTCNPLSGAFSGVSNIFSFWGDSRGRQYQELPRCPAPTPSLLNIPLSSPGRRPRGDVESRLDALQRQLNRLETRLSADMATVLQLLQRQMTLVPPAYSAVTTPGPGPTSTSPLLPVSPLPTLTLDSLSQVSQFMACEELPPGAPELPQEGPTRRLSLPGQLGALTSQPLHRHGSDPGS
Sequence of Cytochrome P450 3A4 (P08684 whole entry): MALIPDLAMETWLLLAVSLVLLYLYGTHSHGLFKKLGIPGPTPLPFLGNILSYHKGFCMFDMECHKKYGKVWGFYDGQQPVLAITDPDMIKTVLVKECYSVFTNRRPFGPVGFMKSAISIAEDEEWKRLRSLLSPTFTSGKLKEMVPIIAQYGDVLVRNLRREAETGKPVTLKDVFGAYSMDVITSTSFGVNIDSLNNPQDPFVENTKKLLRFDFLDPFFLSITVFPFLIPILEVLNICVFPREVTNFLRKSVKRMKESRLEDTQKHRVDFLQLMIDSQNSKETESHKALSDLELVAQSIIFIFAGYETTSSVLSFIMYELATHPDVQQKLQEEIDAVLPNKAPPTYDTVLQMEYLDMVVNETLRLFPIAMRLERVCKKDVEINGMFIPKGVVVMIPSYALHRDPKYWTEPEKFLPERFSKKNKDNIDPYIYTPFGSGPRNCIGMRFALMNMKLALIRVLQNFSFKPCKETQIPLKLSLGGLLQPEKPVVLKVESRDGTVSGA
Sequence of Cytochrome P450 2C19 (P33261 whole entry): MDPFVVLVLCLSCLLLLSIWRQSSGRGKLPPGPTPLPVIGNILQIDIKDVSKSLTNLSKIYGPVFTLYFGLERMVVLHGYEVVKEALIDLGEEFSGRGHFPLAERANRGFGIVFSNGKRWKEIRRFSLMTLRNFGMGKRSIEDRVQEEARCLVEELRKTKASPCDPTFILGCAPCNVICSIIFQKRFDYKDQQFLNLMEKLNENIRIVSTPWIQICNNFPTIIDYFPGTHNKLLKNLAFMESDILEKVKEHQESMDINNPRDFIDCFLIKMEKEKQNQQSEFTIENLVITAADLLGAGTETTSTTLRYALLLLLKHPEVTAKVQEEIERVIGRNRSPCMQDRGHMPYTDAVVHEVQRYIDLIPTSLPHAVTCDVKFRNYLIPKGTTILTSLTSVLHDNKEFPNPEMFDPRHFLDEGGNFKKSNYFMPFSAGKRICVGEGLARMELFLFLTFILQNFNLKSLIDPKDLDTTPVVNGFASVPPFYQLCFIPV
Sequence of Cytochrome P450 2D6 (P10635 whole entry): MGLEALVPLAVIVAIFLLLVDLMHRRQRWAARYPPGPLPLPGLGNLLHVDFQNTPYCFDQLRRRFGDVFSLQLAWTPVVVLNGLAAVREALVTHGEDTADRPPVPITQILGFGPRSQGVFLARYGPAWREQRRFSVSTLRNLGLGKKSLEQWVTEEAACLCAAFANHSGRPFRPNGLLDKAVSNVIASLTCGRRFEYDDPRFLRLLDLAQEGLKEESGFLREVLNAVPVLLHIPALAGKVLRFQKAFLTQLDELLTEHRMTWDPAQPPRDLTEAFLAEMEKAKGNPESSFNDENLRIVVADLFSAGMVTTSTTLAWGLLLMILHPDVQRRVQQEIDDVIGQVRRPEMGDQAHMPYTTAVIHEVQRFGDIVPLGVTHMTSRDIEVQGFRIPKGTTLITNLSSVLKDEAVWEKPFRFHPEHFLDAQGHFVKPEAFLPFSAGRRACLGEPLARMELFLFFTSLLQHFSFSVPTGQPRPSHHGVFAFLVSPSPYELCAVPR
Sequence of Cytochrome P450 2C9 (P11712 whole entry): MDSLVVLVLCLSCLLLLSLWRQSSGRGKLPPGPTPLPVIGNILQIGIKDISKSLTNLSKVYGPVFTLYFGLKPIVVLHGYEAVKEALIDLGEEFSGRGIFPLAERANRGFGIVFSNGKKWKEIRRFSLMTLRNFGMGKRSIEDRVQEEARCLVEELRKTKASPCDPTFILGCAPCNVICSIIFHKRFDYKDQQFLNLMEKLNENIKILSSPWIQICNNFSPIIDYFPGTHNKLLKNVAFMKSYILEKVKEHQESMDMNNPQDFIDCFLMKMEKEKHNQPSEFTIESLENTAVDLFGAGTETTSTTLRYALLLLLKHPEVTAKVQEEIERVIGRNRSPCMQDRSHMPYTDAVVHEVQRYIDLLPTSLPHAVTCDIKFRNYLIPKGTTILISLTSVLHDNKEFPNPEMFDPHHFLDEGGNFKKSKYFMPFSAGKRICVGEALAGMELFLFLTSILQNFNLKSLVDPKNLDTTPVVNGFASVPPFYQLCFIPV

CLH (Hepatocyte [1]): 13 µL/min
solubility thermodynamic at 24 h [2]: < 0.43 µM
IC50 (Cytochrome P450 2C9): 7.9 µM
logD [3]: 4.1
IC50 (Cytochrome P450 2D6): > 20 µM
solubility thermodynamic at 24 h [5]: < 0.2 µM
IC50 (Androgen receptor): > 1 µM
Fu (Plasma): < 0.003%
IC50 (Cytochrome P450 1A2): > 20 µM
IC50 (Cytochrome P450 3A4): 10 µM
IC50 (Glucocorticoid receptor): 0.0009 µM
CLH (Hepatocyte [10]): 18 µL/min
Drug uptake (Lung): 50%
IC50 (Cytochrome P450 2C19): > 20 µM
Structure (SMILES): Cc1cc(C)c(S(=O)(=O)N[C@@H](C)CNc2cccc3c2cnn3-c2ccc(F)cc2)c(C)c1
inhibition in vivo at 0.1 mg/kg (Mus musculus [4]): 23%
inhibition in vivo at 0.03 mg/kg (Mus musculus [6]): 36%
inhibition in vivo at 0.01 mg/kg (Mus musculus [7]): 0%
inhibition in vivo at 0.03 mg/kg (Rattus norvegicus [8]): 90%
inhibition in vivo at 0.03 mg/kg (Rattus norvegicus [9]): 42%
inhibition in vivo at 0.1 mg/kg (Rattus norvegicus [11]): 56%
inhibition in vivo at 0.1 mg/kg (Rattus norvegicus [12]): 85%
inhibition in vivo at 0.01 mg/kg (Rattus norvegicus [13]): 37%
inhibition in vivo at 0.01 mg/kg (Rattus norvegicus [14]): 32%
inhibition at 50 µM (hERG (KCNH2)): < 25%

Structure (SMILES): CCCC1O[C@@H]2C[C@H]3[C@@H]4CCC5=CC(=O)C=C[C@]5(C)[C@H]4[C@@H](O)C[C@]3(C)[C@]2(C(=O)CO)O1 (stereo not given in full) [BUDESONIDE]
inhibition in vivo at 0.3 mg/kg (Mus musculus [15]): 38%
